Patent US12077503B2, “Substituted cyclic amides and their use as herbicides” (FMC CORPORATION, priority 2015, dated 2024)
Like-named read-outs stand apart in the source and are kept apart here.

Columns and labels:
Type in all cases: in vivo
[1] = system: Kochia (Kochia scoparia); test: Test A preemergence; settings: Bassia scoparia, pre-emergence, 240 h; for pest or weed control at 125 g/ha: 125 g ai/ha; for pest or weed control at 500 g/ha: 500 g ai/ha
In short: (§1)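 Each rating is a visual injury score from 0 to 100 given about 10 d after treatment, judged against untreated controls kept alongside in the greenhouse. In loam soil–sand blend, seeds got a preemergence directed soil spray, while postemergence plants were 2 to 10 cm tall at spraying.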

[2] = system: barnyardgrass (Echinochloa crus-galli); test: Test A preemergence; settings: Echinochloa crus-galli, pre-emergence, 240 h; for pest or weed control at 125 g/ha: 125 g ai/ha; for pest or weed control at 500 g/ha: 500 g ai/ha
In short: as §1

[3] = system: giant foxtail (Setaria faberii); test: Test A preemergence; settings: Setaria faberi, pre-emergence, 240 h; for pest or weed control at 125 g/ha: 125 g ai/ha; for pest or weed control at 500 g/ha: 500 g ai/ha
In short: as §1

[4] = system: pigweed (Amaranthus retroflexus); test: Test A preemergence; settings: Amaranthus retroflexus, pre-emergence, 240 h; for pest or weed control at 125 g/ha: 125 g ai/ha; for pest or weed control at 500 g/ha: 500 g ai/ha
[5] = system: ragweed (common ragweed, Ambrosia elatior); test: Test A preemergence; settings: Ambrosia artemisiifolia, pre-emergence, 240 h; for pest or weed control at 125 g/ha: 125 g ai/ha; for pest or weed control at 500 g/ha: 500 g ai/ha
In short: as §1

[6] = system: ryegrass, Italian (Italian ryegrass, Lolium multiflorum); test: Test A preemergence; settings: Lolium multiflorum, pre-emergence, 240 h; for pest or weed control at 125 g/ha: 125 g ai/ha; for pest or weed control at 500 g/ha: 500 g ai/ha
In short: as §1

[7] = system: blackgrass (Alopecurus myosuroides); test: Test A postemergence; settings: Alopecurus myosuroides, post-emergence, 240 h, postemergence; for pest or weed control at 125 g/ha: 125 g ai/ha
In short: as §1

[8] = system: corn (Zea mays); test: Test A postemergence; settings: Zea mays, post-emergence, 240 h, postemergence; for plant injury at 125 g/ha: 125 g ai/ha
In short: as §1

[9] = system: pigweed (Amaranthus retroflexus); test: Test A postemergence; settings: Amaranthus retroflexus, post-emergence, 240 h, postemergence; for pest or weed control at 125 g/ha: 125 g ai/ha
In short: as §1

[10] = system: ragweed (common ragweed, Ambrosia elatior); test: Test A postemergence; settings: Ambrosia artemisiifolia, post-emergence, 240 h, postemergence; for pest or weed control at 125 g/ha: 125 g ai/ha
In short: as §1

[11] = system: ryegrass, Italian (Italian ryegrass, Lolium multiflorum); test: Test A postemergence; settings: Lolium multiflorum, post-emergence, 240 h, postemergence; for pest or weed control at 125 g/ha: 125 g ai/ha
In short: as §1

[12] = system: barnyardgrass (Echinochloa crus-galli); test: Test B flooded paddy test; settings: Echinochloa crus-galli, Flood, 250 g ai/ha, read-out: Barnyardgrass plant response rating
In short: (§2)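 Percent control, visually estimated after 13–15 d in the greenhouse on a 0–100 basis, compares treated pots with untreated ones; compound was put into paddy water 3 cm above the soil when plants had two leaves.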

[13] = system: ducksalad (Heteranthera limosa); test: Test B flooded paddy test; settings: Heteranthera limosa, Flood, 250 g ai/ha, read-out: Ducksalad plant response rating
In short: as §2

[14] = system: rice (Oryra sativa); test: Test B flooded paddy test; settings: Oryza sativa, Flood, 250 g ai/ha, read-out: Rice plant response rating
In short: as §2

[15] = system: sedge, umbrella (small-flower umbrella sedge, Cyperus difformis); test: Test B flooded paddy test; settings: Cyperus difformis, Flood, 250 g ai/ha, read-out: Sedge, Umbrella plant response rating
In short: as §2

[16] = preemergence, 0 to 100 scale where 0 is no effect and 100 is complete control, read-out: Kochia plant response rating
[17] = preemergence, 0 to 100 scale where 0 is no effect and 100 is complete control, read-out: Barnyardgrass plant response rating
[18] = preemergence, 0 to 100 scale where 0 is no effect and 100 is complete control, read-out: Foxtail, Giant plant response rating
[19] = preemergence, 0 to 100 scale where 0 is no effect and 100 is complete control, read-out: Pigweed plant response rating
[20] = preemergence, 0 to 100 scale where 0 is no effect and 100 is complete control, read-out: Ragweed plant response rating
[21] = preemergence, 0 to 100 scale where 0 is no effect and 100 is complete control, read-out: Ryegrass, Italian plant response rating
[22] = scale of 0 to 100 where 0 is no effect and 100 is complete control
[23] = 0 to 100 scale where 0 is no effect and 100 is complete control

Cc1c(F)cccc1NC(=O)[C@H]1C(=O)NC[C@@H]1c1cccc(C(F)(F)F)c1 [Compound 826]
pest or weed control at 125 g/ha [1, 16]: 70%
pest or weed control at 500 g/ha ([1]; Preemergence, visual injury vs untreated controls after approximately 10 d, read-out: Kochia plant response rating (0 to 100 scale where 0 is no effect and 100 is complete control)): 90%
pest or weed control at 125 g/ha [2, 17]: 90%
pest or weed control at 500 g/ha ([2]; Preemergence, visual injury vs untreated controls after approximately 10 d, read-out: Barnyardgrass plant response rating (0 to 100 scale where 0 is no effect and 100 is complete control)): 100%
pest or weed control at 125 g/ha [3, 18]: 100%
pest or weed control at 500 g/ha ([3]; Preemergence, visual injury vs untreated controls after approximately 10 d, read-out: Foxtail, Giant plant response rating (0 to 100 scale where 0 is no effect and 100 is complete control)): 100%
pest or weed control at 125 g/ha [4, 19]: 0%
pest or weed control at 500 g/ha ([4]; Preemergence, visual injury vs untreated controls after approximately 10 d, read-out: Pigweed plant response rating (0 to 100 scale where 0 is no effect and 100 is complete control)): 60%
pest or weed control at 125 g/ha [5, 20]: 20%
pest or weed control at 500 g/ha ([5]; Preemergence, visual injury vs untreated controls after approximately 10 d, read-out: Ragweed plant response rating (0 to 100 scale where 0 is no effect and 100 is complete control)): 80%
pest or weed control at 125 g/ha [6, 21]: 70%
pest or weed control at 500 g/ha ([6]; Preemergence, visual injury vs untreated controls after approximately 10 d, read-out: Ryegrass, Italian plant response rating (0 to 100 scale where 0 is no effect and 100 is complete control)): 80%
pest or weed control at 125 g/ha ([7]; visual injury rating after approximately 10 d, read-out: Blackgrass plant response rating (0 to 100 scale, 0 no effect, 100 complete control)): 80%
plant injury at 125 g/ha ([8]; visual injury rating after approximately 10 d, read-out: Corn plant response rating (0 to 100 scale, 0 no effect, 100 complete control)): 80%
pest or weed control at 125 g/ha ([9]; visual injury rating after approximately 10 d, read-out: Pigweed plant response rating (0 to 100 scale, 0 no effect, 100 complete control)): 30%
pest or weed control at 125 g/ha ([10]; visual injury rating after approximately 10 d, read-out: Ragweed plant response rating (0 to 100 scale, 0 no effect, 100 complete control)): 50%
pest or weed control at 125 g/ha ([11]; visual injury rating after approximately 10 d, read-out: Ryegrass, Italian plant response rating (0 to 100 scale, 0 no effect, 100 complete control)): 60%
pest or weed control at 250 g/ha [12, 22]: 65%
pest or weed control at 250 g/ha [13, 22]: 100%
pest or weed control at 250 g/ha [14, 22]: 0%
pest or weed control at 250 g/ha [15, 22]: 0%

CCc1cc([C@H]2CN(C)C(=O)[C@@H]2C(=O)Nc2cccc(F)c2F)cs1 [Compound 1157]
pest or weed control at 125 g/ha ([1]; preemergence, 0 to 100 scale where 0 is no effect and 100 is complete control, approx. 10 d, read-out: Kochia plant response rating): 90%
pest or weed control at 500 g/ha [1, 16]: 90%
pest or weed control at 125 g/ha ([2]; preemergence, 0 to 100 scale where 0 is no effect and 100 is complete control, approx. 10 d, read-out: Barnyardgrass plant response rating): 90%
pest or weed control at 500 g/ha [2, 17]: 90%
pest or weed control at 125 g/ha ([3]; preemergence, 0 to 100 scale where 0 is no effect and 100 is complete control, approx. 10 d, read-out: Foxtail, Giant plant response rating): 90%
pest or weed control at 500 g/ha [3, 18]: 100%
pest or weed control at 125 g/ha ([4]; preemergence, 0 to 100 scale where 0 is no effect and 100 is complete control, approx. 10 d, read-out: Pigweed plant response rating): 30%
pest or weed control at 500 g/ha [4, 19]: 60%
pest or weed control at 125 g/ha ([5]; preemergence, 0 to 100 scale where 0 is no effect and 100 is complete control, approx. 10 d, read-out: Ragweed plant response rating): 0%
pest or weed control at 500 g/ha [5, 20]: 80%
pest or weed control at 125 g/ha ([6]; preemergence, 0 to 100 scale where 0 is no effect and 100 is complete control, approx. 10 d, read-out: Ryegrass, Italian plant response rating): 30%
pest or weed control at 500 g/ha [6, 21]: 90%
pest or weed control at 125 g/ha ([7]; visual injury vs untreated controls after approx. 10 d, 0 = no effect, 100 = complete control, read-out: Blackgrass plant response rating (0 to 100 scale)): 0%
pest or weed control at 500 g/ha ([7]; 500 g ai/ha, 0 to 100 scale, 0 is no effect, 100 is complete control, read-out: Blackgrass plant response rating): 50%
plant injury at 125 g/ha ([8]; visual injury vs untreated controls after approx. 10 d, 0 = no effect, 100 = complete control, read-out: Corn plant response rating (0 to 100 scale)): 40%
plant injury at 500 g/ha ([8]; 500 g ai/ha, 0 to 100 scale, 0 is no effect, 100 is complete control, read-out: Corn plant response rating): 50%
pest or weed control at 125 g/ha ([9]; visual injury vs untreated controls after approx. 10 d, 0 = no effect, 100 = complete control, read-out: Pigweed plant response rating (0 to 100 scale)): 0%
pest or weed control at 500 g/ha ([9]; 500 g ai/ha, 0 to 100 scale, 0 is no effect, 100 is complete control, read-out: Pigweed plant response rating): 0%
pest or weed control at 125 g/ha ([10]; visual injury vs untreated controls after approx. 10 d, 0 = no effect, 100 = complete control, read-out: Ragweed plant response rating (0 to 100 scale)): 0%
pest or weed control at 500 g/ha ([10]; 500 g ai/ha, 0 to 100 scale, 0 is no effect, 100 is complete control, read-out: Ragweed plant response rating): 50%
pest or weed control at 125 g/ha ([11]; visual injury vs untreated controls after approx. 10 d, 0 = no effect, 100 = complete control, read-out: Ryegrass, Italian plant response rating (0 to 100 scale)): 0%
pest or weed control at 500 g/ha ([11]; 500 g ai/ha, 0 to 100 scale, 0 is no effect, 100 is complete control, read-out: Ryegrass, Italian plant response rating): 40%
pest or weed control at 250 g/ha [12, 23]: 55%
pest or weed control at 250 g/ha [13, 23]: 98%
pest or weed control at 250 g/ha [14, 23]: 0%
pest or weed control at 250 g/ha [15, 23]: 0%
